Six compounds from patent US3960845A, “Process for preparing 7β-acylamino-7α-alkoxycephalosporins or 6β-acylamino-6α-alkoxypenicillins” (Sankyo Company Limited, priority 1974, dated 1976) can be followed below.

The structures appear in SMILES notation. ≈ marks a conversion by molar mass, not a printed value. Read-outs that look alike come from different tables or passages of the source.

Common to all, as to format: cell-based
Assay [1] deals with Staphylococcus aureus 209p. Description: Minimal inhibitory concentration. The note with it: read-out: Minimal inhibitory concentration. The source says:
(§1) Minimal inhibitory concentrations of various microorganisms mcg/ml
1 A Staphylococcus aureus 209p

Assay [2] deals with Staphylococcus aureus (CP and PC resistant). Description: Minimal inhibitory concentration. The note with it: I B: Staphylococcus aureus (CP and PC resistant).
Description: as §1
1 B Staphylococcus aureus

Assay [3] deals with E. coli NIHJ. The experiment in a line: Minimal inhibitory concentration. The note with it: Escherichia coli; II A: E. coli NIHJ.
Description: as §1

In assay [4] the test system is Proteus vulgaris. The experiment in a line: Minimal inhibitory concentration. The note with it: read-out: Minimal inhibitory concentration.
Description: as §1

The test system of assay [5] is E. coli 609 (CER resistant). Description: Minimal inhibitory concentration. The note with it: Escherichia coli, read-out: Minimal inhibitory concentration.
Description: as §1
II B E. coli 609 (CER resistant)

Assay [6] has as its system Shigella flexneri Komagome. Description: Minimal inhibitory concentration. The note with it: III: Shigella flexneri Komagome; read-out: Minimal inhibitory concentration.
Description: as §1
III Shigella flexneri Komagome

For assay [7], the system named is Klebsiella neumoniae 806. Description: Minimal inhibitory concentration.
Description: as §1
IV A Klebsiella neumoniae 806

Assay [8] concerns Klebsiella neumoniae 846 (CER resistant). The experiment in a line: Minimal inhibitory concentration. The note with it: IV B: Klebsiella neumoniae 846 (CER resistant).
Description: as §1
IV B Klebsiella neumoniae 846 (CER resistant)

Assay [9] relates to Salmonella enteritidis Gaertner. The experiment in a line: Minimal inhibitory concentration. The note with it: Salmonella enterica, read-out: Minimal inhibitory concentration.
Description: as §1
VI Salmonella enteritidis Gaertner

In assay [10] the test system is broad pathogenic microorganisms. The experiment in a line: antimicrobial activity. The note with it: result in words.
Where [11] appears, read: I A: Staphylococcus aureus 209p.
[12] abbreviates: IV A: Klebsiella neumoniae 806, read-out: Minimal inhibitory concentration.
Setting [13] is: VI: Salmonella enteritidis Gaertner.
Where [14] appears, read: II B: E. coli 609 (CER resistant).

Consider `CO[C@@]1(NC(=O)CSc2nnc[nH]2)C(=O)N2C(C(=O)O)=C(COC(N)=O)CS[C@@H]21` [7β-(1,2,4-triazol-4H-3-yl)thioacetamido-7α-methoxy-3-carbamoyloxymethyl-3-cephem-4-carboxylic acid], for which the MIC in assay [1] (setting [11]) amounted to 1.5 µg/mL (≈ 3.37 µM); in [2], 6.2 µg/mL (≈ 13.9 µM); in [3], 6.2 µg/mL (≈ 13.9 µM); in assay [4] (V: Proteus vulgaris), 25 µg/mL (≈ 56.2 µM); in assay [5] it was 12.5 µg/mL (≈ 28.1 µM); in assay [6], 12.5 µg/mL (≈ 28.1 µM). Moreover, the values for the MIC in [7] (setting [12]), in assay [8] and in [9] (setting [13]) were 6.2 µg/mL (≈ 13.9 µM), > 400 µg/mL and 6.2 µg/mL (≈ 13.9 µM), respectively. The “antimicrobial activity against broad pathogenic microorganisms” value (shortened to “antimicrobial activity”) in [10] is “excellent antimicrobial activity”.

As to `CO[C@@]1(NC(=O)CSc2nncs2)C(=O)N2C(C(=O)O)=C(CSc3nnnn3C)CS[C@@H]21` [7β-(1,3,4-thiadiazol-2-yl)thioacetamido-7α-methoxy-3-(1-methyl-1H-tetrazol-5-yl)thiomethyl-3-cephem-4-carboxylic acid], the MIC was 0.4 µg/mL (≈ 0.774 µM) in assay [1] (setting [11]); 0.8 µg/mL (≈ 1.55 µM) in [2]; 1.5 µg/mL (≈ 2.9 µM) in assay [3]; 3.1 µg/mL (≈ 6 µM) in assay [4] (V: Proteus vulgaris); 1.5 µg/mL (≈ 2.9 µM) in assay [5] (setting [14]); 1.5 µg/mL (≈ 2.9 µM) in assay [6]. Besides, the MIC is 1.5 µg/mL (≈ 2.9 µM) in [7] (setting [12]), > 200 µg/mL in [8] and 0.8 µg/mL (≈ 1.55 µM) in assay [9] (setting [13]). The “antimicrobial activity” value in assay [10] is on record as “excellent antimicrobial activity”.

On to `CO[C@@]1(NC(=O)CSc2nncs2)C(=O)N2C(C(=O)O)=C(COC(C)=O)CS[C@@H]21` [7β-(1,3,4-thiadiazol-2-yl)thioacetamido-7α-methoxy-3-acetoxymethyl-3-cephem-4-carboxylic acid], for which the MIC turned out to be 0.8 µg/mL (≈ 1.74 µM) in [1] (setting [11]); 1.5 µg/mL (≈ 3.26 µM) in [2]; 3.1 µg/mL (≈ 6.73 µM) in assay [3]; 6.2 µg/mL (≈ 13.5 µM) in [4] (V: Proteus vulgaris); 6.2 µg/mL (≈ 13.5 µM) in assay [5] (setting [14]); 6.2 µg/mL (≈ 13.5 µM) in assay [6]. The MIC was 3.1 µg/mL (≈ 6.73 µM) in [7] (setting [12]), > 400 µg/mL in assay [8] and 3.4 µg/mL (≈ 7.38 µM) in assay [9] (setting [13]). Also, in assay [10], the “antimicrobial activity” value is given as “excellent antimicrobial activity”.

Consider `CO[C@@]1(NC(=O)CSc2nncs2)C(=O)N2C(C(=O)O)=C(COC(N)=O)CS[C@@H]21` [7β-(1,3,4-thiadiazol-2-yl)thioacetamido-7α-methoxy-3-carbamoyloxymethyl-3-cephem-4-carboxylic acid], for which the MIC in [1] (setting [11]) is 0.4 µg/mL (≈ 0.867 µM); in assay [2], 1.5 µg/mL (≈ 3.25 µM); in assay [3], 3.1 µg/mL (≈ 6.72 µM); in assay [4] (V: Proteus vulgaris) it was 6.2 µg/mL (≈ 13.4 µM); in [5] (setting [14]), 3.1 µg/mL (≈ 6.72 µM); in assay [6], 3.1 µg/mL (≈ 6.72 µM). In addition, the results for the MIC in [7] (setting [12]), in [8] and in assay [9] (setting [13]) were 3.1 µg/mL (≈ 6.72 µM), > 400 µg/mL and 1.5 µg/mL (≈ 3.25 µM), respectively. Besides, the “antimicrobial activity” value in [10] was “excellent antimicrobial activity”.

Regarding `CO[C@@]1(NC(=O)CSc2ccon2)C(=O)N2C(C(=O)O)=C(COC(C)=O)CS[C@@H]21` [7β-(3-isoxazolyl)thioacetamido-7α-methoxy-3-acetoxymethyl-3-cephem-4-carboxylic acid], the MIC in assay [1] (setting [11]) turned out to be 0.2 µg/mL (≈ 0.451 µM); in assay [2] it was 0.8 µg/mL (≈ 1.8 µM); in assay [3] it was 3.1 µg/mL (≈ 6.99 µM); in assay [4] (V: Proteus vulgaris), 3.1 µg/mL (≈ 6.99 µM); in assay [5] (setting [14]), 6.2 µg/mL (≈ 14 µM); in assay [6] it was 6.2 µg/mL (≈ 14 µM). For the same compound, the MIC in assay [7] (setting [12]) is 3.1 µg/mL (≈ 6.99 µM); in [8] it was > 400 µg/mL; in assay [9] (setting [13]) it was 1.5 µg/mL (≈ 3.38 µM). In addition, the “antimicrobial activity” value in assay [10] was “excellent antimicrobial activity”.

For the compound `CO[C@@]1(NC(=O)CSCC#N)C(=O)N2C(C(=O)O)=C(CSc3nnnn3C)CS[C@@H]21` [7β-cyanomethylthioacetamido-7α-methoxy-3-(1-methyl-1H-tetrazol-5-yl)thiomethyl-3-cephem-4-carboxylic acid], the MIC was 0.2 µg/mL (≈ 0.424 µM) in assay [1] (Staphylococcus aureus, 209P); 0.8 µg/mL (≈ 1.7 µM) in assay [2]; 1.5 µg/mL (≈ 3.18 µM) in [4] (Proteus vulgaris); 0.8 µg/mL (≈ 1.7 µM) in assay [5] (setting [14]); 0.8 µg/mL (≈ 1.7 µM) in [6]; 0.8 µg/mL (≈ 1.7 µM) in assay [7] (Klebsiella, 806, read-out: Minimal inhibitory concentration). Moreover, the results for the MIC in [8] and in assay [9] (ENTERITIDIS) were > 200 µg/mL and 0.2 µg/mL (≈ 0.424 µM), respectively. For the same compound, the “antimicrobial activity” value in assay [10] is “excellent antimicrobial activity”.
